Measurements: the NIST ThermoML archive (doi:10.1016/j.fluid.2009.09.024)
Values joined by “and” are separate entries in the source; they are usually repeats but may differ in a detail not shown here. Identical values can stand only once. Numbers after ± are expanded uncertainties.

Key:
[1] = for mass density: Vibrating tube method; for vapor or sublimation pressure: Closed cell (Static) method
[2] = xn = mol fraction of the nth substance listed; details: Liquid, Vibrating tube method

Cc1cccc(C)c1 [1,3-dimethylbenzene]
[1]
Details | mass density, 333.15 K [kg/m3] | mass density, 353.15 K [kg/m3] | vapor or sublimation pressure, 333.15 K [kPa] | vapor or sublimation pressure, 353.15 K [kPa]
Gas | 0.252 ± 0.1 | 0.5448 ± 0.1 | – | –
Liquid | 829.305 ± 0.24 | 811.602 ± 0.24 | 6.59 ± 0.05 | 15.09 ± 0.09

c1ccccc1 [benzene]
[1]
Details | mass density, 333.15 K [kg/m3] | mass density, 353.15 K [kg/m3] | vapor or sublimation pressure, 333.15 K [kPa] | vapor or sublimation pressure, 353.15 K [kPa]
Gas | 1.5172 ± 0.1 | 2.69 ± 0.1 | – | –
Liquid | 835.696 ± 0.16 | 814.086 ± 0.16 | 52.45 ± 0.27 | 100 ± 0.51

Cc1ccccc1C [1,2-dimethylbenzene]
[1]
Details | mass density, 333.15 K | mass density, 353.15 K | vapor or sublimation pressure, 333.15 K | vapor or sublimation pressure, 353.15 K
Gas | – | 0.4397 ± 0.1 kg/m3 and 0.4571 ± 0.1 kg/m3 | – | –
Liquid | 845.8 ± 0.23 kg/m3 and 845.839 ± 0.23 kg/m3 | 828.5 ± 0.24 kg/m3 and 828.528 ± 0.24 kg/m3 | 5.32 ± 0.04 kPa and 5.44 ± 0.04 kPa | 12.8 ± 0.08 kPa and 12.66 ± 0.08 kPa

O=S1(=O)CCCC1 [sulfolane] + Cc1cccc(C)c1
mass density [kg/m3], [2]
Details | 333.15 K | 353.15 K
x2 = 0 | 1231.12 ± 0.42 | 1214.39 ± 0.41
x2 = 0.01 | 1227.11 ± 0.9 | –
x2 = 0.015 | 1225.1 ± 0.9 | 1208.34 ± 0.9
x2 = 0.02 | 1223.09 ± 0.9 | 1206.33 ± 0.9
x2 = 0.03 | 1219.07 ± 0.9 | 1202.3 ± 0.9
x2 = 0.05 | – | 1194.25 ± 0.9
x2 = 0.1 | 1190.81 ± 0.89 | 1173.97 ± 0.89
x2 = 0.199 | 1150.86 ± 0.88 | 1133.93 ± 0.87
x2 = 0.299 | 1110.94 ± 0.86 | 1093.91 ± 0.86
x2 = 0.399 | 1070.45 ± 0.86 | 1053.33 ± 0.85
x2 = 0.501 | 1029.46 ± 0.84 | 1012.24 ± 0.84
x2 = 0.6 | 989.939 ± 0.84 | 972.621 ± 0.84
x2 = 0.7 | 949.485 ± 0.84 | 932.07 ± 0.84
x2 = 0.799 | 909.766 ± 0.83 | 892.257 ± 0.84
x2 = 0.9 | 869.443 ± 0.83 | 851.836 ± 0.84

CCCCCCCCC [nonane] + c1ccccc1
mass density [kg/m3], [2]
Details | 333.15 K | 353.15 K
x2 = 0 | 685.961 ± 0.25 | 669.919 ± 0.25
x2 = 0.1 | 700.985 ± 0.38 | –
x2 = 0.101 | – | 684.481 ± 0.38
x2 = 0.199 | – | 698.728 ± 0.37
x2 = 0.2 | 715.957 ± 0.38 | –
x2 = 0.248 | – | 705.756 ± 0.36
x2 = 0.3 | – | 713.217 ± 0.36
x2 = 0.302 | 731.175 ± 0.37 | –
x2 = 0.399 | – | 727.581 ± 0.36
x2 = 0.404 | 746.508 ± 0.36 | –
x2 = 0.499 | – | 741.992 ± 0.35
x2 = 0.502 | 761.194 ± 0.36 | –
x2 = 0.599 | 775.788 ± 0.35 | 756.286 ± 0.35
x2 = 0.699 | 790.766 ± 0.35 | –
x2 = 0.701 | – | 771.023 ± 0.34
x2 = 0.799 | 805.683 ± 0.34 | 785.21 ± 0.34
x2 = 0.899 | 820.654 ± 0.34 | 799.582 ± 0.33
x2 = 0.94 | 826.713 ± 0.34 | –
x2 = 0.969 | 831.191 ± 0.34 | –

c1ccccc1 [benzene] + CCCCCCCCC
[2], x1 = 1
Details | mass density [kg/m3]
333.15 K | 835.696 ± 0.16
353.15 K | 814.086 ± 0.16

O=S1(=O)CCCC1 [sulfolane]
[1], Liquid
Details | mass density [kg/m3] | vapor or sublimation pressure [kPa]
333.15 K | 1231.12 ± 0.42 | 0.01 ± 0.01
353.15 K | 1214.39 ± 0.41 | 0.04 ± 0.01

Cc1ccccc1 [toluene]
[1]
Details | mass density, 333.15 K [kg/m3] | mass density, 353.15 K [kg/m3] | vapor or sublimation pressure, 333.15 K [kPa] | vapor or sublimation pressure, 353.15 K [kPa]
Gas | 0.6829 ± 0.1 | 1.3863 ± 0.1 | – | –
Liquid | 830.467 ± 0.24 | 810.89 ± 0.24 | 18.62 ± 0.1 | 38.4 ± 0.2

Cc1ccccc1C [1,2-dimethylbenzene] + O=S1(=O)CCCC1
[2], x1 = 1
Details | mass density [kg/m3]
333.15 K | 845.839 ± 0.23
353.15 K | 828.528 ± 0.24

O=S1(=O)CCCC1 [sulfolane] + Cc1ccccc1C
mass density [kg/m3], [2]
Details | 333.15 K | 353.15 K
x2 = 0 | 1231.12 ± 1.3 | 1214.39 ± 1.3
x2 = 0.01 | 1227.27 ± 1.5 | 1210.53 ± 1.5
x2 = 0.015 | 1225.35 ± 1.5 | 1208.6 ± 1.5
x2 = 0.02 | 1223.42 ± 1.5 | 1206.67 ± 1.5
x2 = 0.03 | 1219.57 ± 1.5 | 1202.81 ± 1.5
x2 = 0.1 | 1192.25 ± 1.4 | 1175.45 ± 1.4
x2 = 0.2 | 1153.84 ± 1.2 | 1136.98 ± 1.2
x2 = 0.3 | 1115.37 ± 1.1 | 1098.46 ± 1.1
x2 = 0.4 | 1076.99 ± 1 | 1060.02 ± 1
x2 = 0.499 | 1038.59 ± 0.94 | 1021.56 ± 0.93
x2 = 0.599 | 1000.24 ± 0.88 | 983.157 ± 0.88
x2 = 0.699 | 961.436 ± 0.85 | 944.296 ± 0.85
x2 = 0.801 | 922.401 ± 0.82 | 905.202 ± 0.82
x2 = 0.899 | 884.731 ± 0.81 | 867.477 ± 0.81

Cc1cccc(C)c1 [1,3-dimethylbenzene] + O=S1(=O)CCCC1
[2], x1 = 1
Details | mass density [kg/m3]
333.15 K | 829.305 ± 0.24
353.15 K | 811.602 ± 0.24

Cc1ccccc1C [1,2-dimethylbenzene] + Cc1ccccc1
mass density [kg/m3], [2]
Details | 333.15 K | 353.15 K
x2 = 0 | 845.8 ± 0.23 | 828.5 ± 0.24
x2 = 0.102 | – | 826.692 ± 0.24
x2 = 0.108 | 844.136 ± 0.24 | –
x2 = 0.202 | – | 824.931 ± 0.24
x2 = 0.203 | 842.673 ± 0.24 | –
x2 = 0.299 | – | 823.222 ± 0.24
x2 = 0.301 | 841.173 ± 0.24 | –
x2 = 0.4 | 839.661 ± 0.24 | 821.449 ± 0.24
x2 = 0.499 | 838.134 ± 0.24 | 819.705 ± 0.24
x2 = 0.6 | – | 817.918 ± 0.24
x2 = 0.601 | 836.576 ± 0.24 | –
x2 = 0.699 | 835.072 ± 0.24 | 816.176 ± 0.24
x2 = 0.799 | – | 814.417 ± 0.24
x2 = 0.8 | 833.533 ± 0.24 | –
x2 = 0.899 | – | 812.661 ± 0.24
x2 = 0.9 | 831.999 ± 0.24 | –

Cc1ccccc1 [toluene] + Cc1ccccc1C
[2], x1 = 1
Details | mass density [kg/m3]
333.15 K | 830.467 ± 0.24
353.15 K | 810.89 ± 0.24

CCCCCCCCC [nonane]
[1]
Details | mass density, 333.15 K [kg/m3] | mass density, 353.15 K [kg/m3] | vapor or sublimation pressure, 333.15 K [kPa] | vapor or sublimation pressure, 353.15 K [kPa]
Gas | 0.1868 | 0.4513 ± 0.1 | – | –
Liquid | 685.961 ± 0.25 | 669.919 ± 0.25 | 3.97 ± 0.03 | 10.28 ± 0.06
